Assay results taken from patent publication US6849732B2, “Metalloproteinase inhibitors, pharmaceutical compositions containing them and their pharmaceutical uses, and methods and intermediates useful for their preparation” (Agouron Pharmaceuticals, Inc., priority 1995, dated 2005).
Where a name gives a salt, the structure may show the parent alone.

Columns and labels:
stromelysin (HSLN) = stromelysin (HSLN) (Homo sapiens, UniProt P08254); experiment: MCA fluorogenic enzyme assay, competitive inhibition analysis (Ki,app), stromelysin; assay type: biochemical; conditions: Ki,app; MCA peptide substrate, 37° C., pH 7.5; read-out: Enzyme Inhibition Constants (K1) HSLN
matrilysin (Matr.) = target: T1, matrilysin (Matr.) (Homo sapiens, UniProt P09237); experiment: MCA fluorogenic enzyme assay, competitive inhibition analysis (Ki,app), matrilysin; assay type: biochemical; conditions: MCA peptide substrate, 37° C., pH 7.5, read-out: Enzyme Inhibition Constants (K1) Matr.
T1 sequence (P09237 95-267): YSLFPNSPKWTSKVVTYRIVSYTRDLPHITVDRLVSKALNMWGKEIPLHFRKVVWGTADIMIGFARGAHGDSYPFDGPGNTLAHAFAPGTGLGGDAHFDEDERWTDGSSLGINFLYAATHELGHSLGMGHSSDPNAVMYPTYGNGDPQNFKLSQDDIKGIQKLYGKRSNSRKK
Method: Stromelysin enzymatic activity was measured using a modified version of a resonance energy transfer fluorogenic assay as described in FEBS, vol. 296(3), p. 263 (1992), the disclosure of which is incorporated herein by reference. The MCA-peptide substrate is shown below. The fluorescent MCA group is quenched by resonance energy transfer to the 2,4-dinitrophenyl group. Matrix metalloproteinases cleave this substrate at the Gly-Leu bond. Cleavage results in the loss of energy transfer and a large increase in fluorescence of the MCA group. [drawing 56] 7-methoxycoumarin-4-yl-acetyl-pro-leu-gly-leu-3-(2,4-dinitrophenyl)-L-2,3-diaminoproprionyl-ala-arg-NH2
The MCA assay was performed at 37° C. in buffer containing 50 mM Tricine (pH 7.5), 10 mM CaCl2, 200 mM NaCl, and 1% DMSO with the following concentrations of matrix metalloproteinases: 1.4 nM stromelyin, 0.063 nM matrilysin, and 0.030 nM gelatinase A. The concentration of MCA substrate was 10 or 20 μM in a final volume of 1.6 mL. Fluorescence data was collected with Perkin-Elmer LS-5B and LS-5B spectrofluorimeters with λexcitation=328 nm and λemission=393 nm. Spectrofluorimeters were interfaced with IBM-compatible microcomputer systems.
The Km for the MCA peptide substrate with the matrix metalloproteinases is quite high and exceeds its solubility under assay conditions. Consequently, the apparent Ki (Ki,app) was determined to describe the strength of inhibition. However, in this case, Ki,app would be essentially equal to Ki since [S]<<Km. For the determination of Ki,app, the concentration of the inhibitor was varied at a constant and low concentration of substrate and the steady-state rates of fluorescence change determined. In most cases absorptive quench due to the presence of ligand was not observed. For slow-binding inhibitors, onset of inhibition curves were collected for at least 45 minutes so that equilibrium was established. Steady-state rates of fluorescence change were obtained by fitting a curve to an equation for a single exponential decay containing a linear phase. The fitted value of the linear phase was taken as the steady-state rate. The steady-state rates were fitted to the Michaelis equation describing competitive inhibition by non-linear methods. Data resulting from tight-binding inhibition was analyzed, and Ki,app determined by fitting the data to the tight-binding equation of Morrison See (Biochem. Biophys. Acta, vol. 185, pp. 269-286 (1969)) by non-linear methods.

gelatinase A (HG72kD) = target: T2, gelatinase A (HG72kD) (Homo sapiens, UniProt P08253); experiment: MCA fluorogenic enzyme assay, competitive inhibition analysis (Ki,app), gelatinase A; assay type: biochemical; conditions: MCA peptide substrate, 37° C., pH 7.5, read-out: Enzyme Inhibition Constants (K1) HG72kD
T2 sequence (P08253 110-660): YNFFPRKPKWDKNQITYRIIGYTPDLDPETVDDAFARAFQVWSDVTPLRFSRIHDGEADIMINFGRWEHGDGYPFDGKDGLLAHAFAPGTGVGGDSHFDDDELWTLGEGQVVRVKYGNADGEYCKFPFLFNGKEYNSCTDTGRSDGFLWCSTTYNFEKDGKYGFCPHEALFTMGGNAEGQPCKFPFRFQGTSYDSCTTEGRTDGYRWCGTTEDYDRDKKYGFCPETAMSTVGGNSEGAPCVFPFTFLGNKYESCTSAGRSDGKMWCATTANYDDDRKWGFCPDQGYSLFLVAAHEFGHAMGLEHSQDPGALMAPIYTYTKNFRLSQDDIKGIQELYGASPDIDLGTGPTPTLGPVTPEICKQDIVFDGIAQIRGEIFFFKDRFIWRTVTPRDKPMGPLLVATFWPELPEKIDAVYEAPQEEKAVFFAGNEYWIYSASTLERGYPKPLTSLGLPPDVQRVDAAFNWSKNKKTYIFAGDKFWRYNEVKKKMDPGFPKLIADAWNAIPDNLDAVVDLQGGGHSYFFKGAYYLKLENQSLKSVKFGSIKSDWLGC

HFC = target: T3, HFC (Homo sapiens, UniProt P03956); experiment: MCA fluorogenic enzyme assay, competitive inhibition analysis (Ki,app), HFC; assay type: biochemical; conditions: MCA peptide substrate, 37° C., pH 7.5, read-out: Enzyme Inhibition Constants (K1) HFC
T3 sequence (P03956 100-469): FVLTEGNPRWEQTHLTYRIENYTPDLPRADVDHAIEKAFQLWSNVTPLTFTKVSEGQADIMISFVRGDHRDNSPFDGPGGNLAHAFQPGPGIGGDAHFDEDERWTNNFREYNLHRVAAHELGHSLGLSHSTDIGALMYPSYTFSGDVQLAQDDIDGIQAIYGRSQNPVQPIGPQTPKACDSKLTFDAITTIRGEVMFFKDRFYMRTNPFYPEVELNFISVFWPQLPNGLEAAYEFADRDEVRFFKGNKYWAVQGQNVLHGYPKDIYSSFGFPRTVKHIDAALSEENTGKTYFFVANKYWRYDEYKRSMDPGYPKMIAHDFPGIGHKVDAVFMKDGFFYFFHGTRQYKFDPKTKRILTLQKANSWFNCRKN

Coll3 = Coll3 (Homo sapiens, UniProt P45452); experiment: MCA fluorogenic enzyme assay, competitive inhibition analysis (Ki,app), Coll3; assay type: biochemical; conditions: MCA peptide substrate, 37° C., pH 7.5, read-out: Enzyme Inhibition Constants (K1) Coll3
[1] = system: bovine nasal cartilage plugs; experiment: Arthritis model: implanted bovine nasal cartilage plugs in sponges impregnated with Mycobacterium tuberculosis; assay type: in vivo, female Lewis rats; conditions: p < 0.01; for weight loss % inhibition: cartilage plug weight; for hydroxyproline % protection: hydroxyproline content of plugs
Method: Previously frozen bovine nasal cartilage plugs weighing approximately 20 mg were embedded in polyvinyl sponges impregnated with Mycobacterium tuberculosis and implanted subcutaneously in female Lewis rats. Dosing was begun 9 days after implantation and the plugs were harvested about one week later. The plugs were weighed and then hydrolyzed and the hydroxyproline content measured. Efficaciousness was determined by the comparison of the compound-treated groups with vehicle-treated controls.

[2] = system: murine Lewis lung carcinoma (NIH) tumor line; experiment: Tumor model: subcutaneous Lewis lung carcinoma, primary tumor growth and lung metastases; assay type: in vivo, female BDF1 mice; conditions: 50 mg/kg, i.p., daily, Day 1-Day 21; for Tumor Growth Delay: delay in reaching 1000 mm^3 tumor volume between control and treated animals; for % Inhibition-Lung Metastases: metastases counted 22 days after tumor implantation
Source text: Primary subcutaneous tumors were established in female BDF1 mice by trocar inoculation of the murine Lewis lung carcinoma (NIH) tumor line. This tumor line produces spontaneous lung metastases which arise from the primary tumor. Primary tumor growth was monitored by measuring the length and width of the subcutaneous tumor using calipers; lung metastases were counted at the end of the experiment (22 days after tumor implantation) by removing the lungs and counting the lesions using a dissecting microscope. The test compound was administered daily, i.p., beginning 24 hours after tumor implantation (day 1) and continuing through day 21. Primary tumor volumes and number of lung metastases were compared to control animals using an ANOVA followed by a comparison of means using the F statistic. […] All drugs were administered at 50 mg/kg, i.p., daily, Day 1-Day 21.

Chain of stromelysin (HSLN) (P08254 100-477): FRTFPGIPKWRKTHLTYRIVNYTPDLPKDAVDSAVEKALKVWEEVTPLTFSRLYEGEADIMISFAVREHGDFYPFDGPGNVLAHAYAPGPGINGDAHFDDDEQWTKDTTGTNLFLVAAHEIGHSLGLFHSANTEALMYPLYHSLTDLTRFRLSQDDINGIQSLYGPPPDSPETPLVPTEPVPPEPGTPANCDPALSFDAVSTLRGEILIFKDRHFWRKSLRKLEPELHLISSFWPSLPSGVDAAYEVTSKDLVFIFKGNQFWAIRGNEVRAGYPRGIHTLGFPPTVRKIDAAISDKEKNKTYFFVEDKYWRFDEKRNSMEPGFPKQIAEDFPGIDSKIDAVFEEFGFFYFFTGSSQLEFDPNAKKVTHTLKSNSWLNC

SMILES	Ki (stromelysin (HSLN)) [pM]	Ki (matrilysin (Matr.)) [pM]	Ki (gelatinase A (HG72kD)) [pM]	melting point [°C]	Ki (HFC) [pM]	Ki (Coll3) [pM]	weight loss % inhibition ([1]; dose p.o. 25 mg/kg/day) [%]	Tumor Growth Delay [2] [days]	% Inhibition-Lung Metastases [2] [%]	weight loss % inhibition ([1]; dose p.o. 10 mg/kg/day) [%]	hydroxyproline % protection ([1]; dose p.o. 10 mg/kg/day) [%]
O=C(NO)C1CNCCN1S(=O)(=O)c1ccc(Oc2ccccc2)cc1 (racemic) [Example 5(b), 2(R/S)-N-hydroxy-1-(4-phenoxybenzenesulfonyl)-piperazine-2-carboxamide]	6200	560000	864	160.4	–	–	–	–	–	–	–
CC1(C)SCCN(S(=O)(=O)c2ccc(Oc3ccc(-n4ccnc4)cc3)cc2)[C@H]1C(=O)NO [3(a), 3(S)-N-hydroxy-4-(4-(4-(imidazol-1-yl)phenoxy)benzenesulfonyl)-2,2-dimethyl-tetrahydro-2H-1,4-thiazine-3-carboxamide]	250	5000	11	–	15000	17	97.5	–	–	–	–
CCOC(=O)CN1CCN(S(=O)(=O)c2ccc(Oc3ccc(Cl)cc3)cc2)[C@@H](C(=O)NO)C1 (as salt: hydrochloride) [Example 11(c), 2(R)-N-hydroxy-1-(4-(4-chlorophenoxy)benzenesulfonyl)-4-(ethoxycarbonylmethyl)-piperazine-2-carboxamide hydrochloride]	–	–	–	163.7	–	–	–	–	–	–	–
Cl.O=C(NO)C1CNCCN1S(=O)(=O)c1ccc(Oc2ccc(Br)cc2)cc1 (racemic) [5(a), 2(R/S)-N-hydroxy-1(4-(4-bromophenoxy)benzenesulfonyl)-piperazine-2-carboxamide hydrochloride]	1800	263000	770	–	68000	1100	–	2.0	13.6	59.6	72.5
CC1(C)C(C(=O)NO)N(S(=O)(=O)c2ccc(Oc3ccc(Cl)cc3)cc2)CC[S+]1[O-] [Example 19(b), 1(R), 3(S)-N-hydroxy-4-(4-(4-chlorophenoxy)benzenesulfonyl)-2,2-dimethyl-1-oxo-tetrahydro-2H-1,4-thiazine-3-carboxamide]	2500	–	18	145 to 147	–	–	–	–	–	–	–
Cc1ccc(Oc2ccc(S(=O)(=O)Cl)cc2)cc1 [2(b), 4-(4-Methylphenoxy)benzenesulfonyl chloride]	–	–	–	295 to 300	–	–	81.1	–	–	–	–
CC(C)(C)OC(=O)N1CCN(S(=O)(=O)c2ccc(Oc3ccc(Br)cc3)cc2)C(C(=O)NO)C1 (racemic) [Example 4, 2(R/S)-N-hydroxy-1-(4-(4-bromophenoxy)benzenesulfonyl)-4-(t-butoxycarbonyl)-piperazine-2-carboxamide]	730	378000	25	112.4	60000	70	–	–	–	–	–
CC(=O)N1CCN(S(=O)(=O)c2ccc(Oc3ccccc3)cc2)C(C(=O)NO)C1 (racemic) [7(a), 2(R/S)-N-hydroxy-1-(4-phenoxybenzenesulfonyl)-4-acetyl-piperazine-2-carboxamide]	640	113000	110	–	–	50	–	0.0	16.1	77.4	86.7
